Assay results: patent publication US10669287B2, “Curcumin-boron complex and pharmaceutical containing same” (JAPAN SCIENCE AND TECHNOLOGY AGENCY, priority 2016, dated 2020)
Entries after “also recorded” stand apart in the source; their conditions may differ. Read-outs that look alike come from different tables or passages of the source.

Columns and labels:
[1] = tested on: PC 12 cells; experiment: Cytotoxicity under light irradiation, WST-8 cell viability, Test Example 2; type: cell-based, rat; settings: LED 660 nm, 10 mW, 5 minutes, then 48 hours
Protocol: A culture medium for rat adrenal medulla-derived pheochromocytoma PC 12 cells (purchased from RIKEN, Japan) seeded on a poly-D-lysine-coated 96-well plate was replaced with 75 μL of a Dulbecco's modified Eagle's medium containing 0.1% horse serum, and the culture was incubated in a 5% CO2 atmosphere at 37° C. for 1 day, and 25 μL of a phosphate buffer saline (pH 7.4) containing a inventive compound was then added thereto. Thereafter, the mixed solution was incubated under LED irradiation (wavelength: 660 nm, 10 mW) (without light irradiation for dark) at 37° C. for 5 minutes. Further, the cell culture plate containing the reaction solution was incubated in a 5% CO2 atmosphere at 37° C. for 48 hours. Finally, the Cell Count Reagent SF (10 μL: purchased from NACALAI TESQUE, INC.) containing WST-8 was added, and the culture was incubated in a 5% CO2 atmosphere at 37° C. for 3 hours, and thereafter the cell viability was determined from the absorbance at 450 nm (reference wavelength: 655 nm).

[2] = Maximum wavelength λmax of photocatalysts; type: physicochemical; settings: Table 1
[3] = Oxygenation of benzoylmethionine in glycerol/water (LC/MS), Test Example 4; settings: compound 2 μM, benzoylmethionine 2000 μM, glycerol/water 0:100 to 50:50, LED 730 nm, room temperature
Protocol: The compound K (2 μM) was added to glycerol/water (0:100, 10:90, 30:70, 50:50) dissolving benzoylmethionine (2000 μM) therein, and the resultant was subjected to LED irradiation (wavelength: 730 nm) at room temperature, and thereafter the reaction was tracked by using LC/MS (ESI-Q).

[4] = target: T1, Aβ1-42 (Homo sapiens, UniProt P05067); experiment: Degree of oxygenation of pre-aggregated Aβ1-42 (MALDI-TOF MS), Test Example 10; type: biochemical; settings: pre-aggregated Aβ1-42 20 μM, catalyst 2 μM, phosphate buffer pH 7.4, 660 nm, 37° C., 30 minutes
T1 construct: phosphate buffer (pH 7.4)/cell culture solution (containing 0.1% horse serum) (1:3) containing Aβ1-42 (10 μM)
Protocol: Aβ1-42 isopeptide (concentration: 250 μM in 0.1% aqueous solution of trifluoroacetic acid), angiotensin IV (200 μM aqueous solution), Met-enkephalin (200 μM aqueous solution), and somatostatin (200 μM aqueous solution) were added to a phosphate buffer or phosphate buffer saline (pH 7.4) (with 0.1 M aqueous solution of sodium hydroxide, as necessary) so that a final peptide concentration of 20 μM or 40 μM (pH 7.4) was reached. Before being subjected to oxygenation reaction, the Aβ1-42 solution was incubated at 37° C. for 1 to 3 hours. The phosphate buffer containing 40 μM of Aβ was diluted with a Dulbecco's modified Eagle's medium (DMEM, Life Technologies) containing 0.1% horse serum and buffered with 25 mM of 4-(2-hydroxyethyl)-1-piperazineethanesulfonic acid (HEPES).
Solutions of the compounds with a final concentration of 2 μM were used for evaluation of oxygenation of Aβ1-42. Solutions of the compounds with a final concentration of 5 μM were used for evaluation of peptide selectivity. Each mixture was subjected to light irradiation with an LED (wavelength: 500, 660, or 780 nm) at a distance of approximately 5 to 10 cm at room temperature. A control group without light irradiation was additionally prepared. Reaction was analyzed through monitor analysis with a MALDI-TOF MS. Degree of oxygenation was determined as a ratio: degree of oxygenation (%)=(total of MS intensities for n[O] adducts)/(MS intensity for native+total of MS intensities for n[O] adducts)×100. Aliquots of each reaction solution were desalted with a ZipTip U-C18 (Merck Millipore), as necessary, before mass spectrometry.
a: A phosphate buffer (pH 7.4) solution containing pre-aggregated Aβ1-42 (20 μM, incubated at 37° C. for 3 hours) and a catalyst (2 μM) was subjected to light irradiation (wavelength: 660 nm) at 37° C. for 30 minutes. Thereafter, the reaction mixture was analyzed by using a MALDI-TOF MS.
a: A phosphate buffer (pH 7.4) containing pre-aggregated Aβ1-42 (20 μM, obtained through incubation at 37° C. for 3 hours) and a catalyst (2 μM) were subjected to light irradiation at 780 nm (14 mW) at 37° C. for 30 minutes. The reaction mixture was analyzed by using a MALDI-TOF MS.

[5] = target: T1, Aβ1-42; experiment: In vitro oxygenation experiment using Aβ1-42 as a substrate (MALDI-TOF MS), Test Example 1; type: biochemical; settings: test compound 1 μM, Aβ1-42 10 μM, LED irradiation at 730 nm, 37° C.
Protocol: An in vitro oxygenation experiment using Aβ1-42 as a substrate was conducted to confirm that each of the inventive compounds actually have Aβ oxygenation activity. A test compound (1 μM in each case) was added to phosphate buffer (pH 7.4)/cell culture solution (containing 0.1% horse serum) (1:3) containing Aβ1-42 (10 μM), and incubated under LED irradiation (wavelength: 660 nm, 730 nm) at 37° C., and then the reaction was tracked by using a mass spectrometer (MALDI-TOF MS). The native Aβ1-42 and the Na^+ adduct were mainly observed before light irradiation. After light irradiation, an ion peak indicating the presence of the oxygenated form was observed over time (FIG. 1, FIG. 2).

[6] = Stability of catalyst in neutral phosphate buffer without or under light irradiation (HPLC), Test Example 5; type: physicochemical; settings: under light irradiation (660 nm)
Protocol: A neutral phosphate buffer containing a catalyst was incubated without light irradiation or under light irradiation (660 nm), and thereafter ethanol containing benzyl alcohol (as an internal standard) was added thereto, and analysis was performed by using HPLC.

[7] = tested on: PC 12 cells; type: cell-based; settings: 5 minutes then 48 hours, n=5, mean±SEM, Table 1
Protocol: Rat pheochromocytoma PC 12 cells were suspended with DMEM containing 5% horse serum and 10% fetal bovine serum, seeded in a poly-D-lysine-coated 96-well plate at a concentration of 10,000 cells per well, and incubated in a 5% carbon dioxide atmosphere at 37° C. for 3 days. After the solvent was removed, the cells were washed with 150 μL of serum-free DMEM, and DMEM (75 μL) containing 0.1% horse serum was added thereto. Thereafter, the 96-well plate was incubated in a 5% carbon dioxide atmosphere at 37° C. for 1 day for use in oxygenation reaction. In oxygenation reaction, the compound E (100 μM dimethyl sulfoxide solution) was added to a phosphate buffer saline containing Aβ (aggregated in advance for 3 hours, 40 μM) and 25 μL of the above cell solution (final concentration of Aβ: 10 μM, final concentration of compound E: 1 μM). The mixture was irradiated with an LED (wavelength: 780 nm) at a distance of approximately 5 cm at 37° C. for 5 minutes. The cells were incubated in a 5% carbon dioxide atmosphere at 37° C. for 48 hours. The cell viability was measured by using the Cell Count Reagent SF (NACALAI TESQUE, INC., Kyoto, Japan) with WST-8 (2-(2-methoxy-4-nitrophenyl)-3-(4-nitrophenyl)-5-(2,4-disulfophenyl)-2H-tetrazolium).
b: LC50 (dark) indicates the toxicity of a compound itself, and LC50 (light) indicates the phototoxicity of a compound. The PC 12 cells were placed in dark or subjected to photocatalytic treatment under light irradiation (wavelength: 660 nm), and incubated at 37° C. for 5 minutes, and then in a 5% carbon dioxide atmosphere at 37° C. for 48 hours, for which the cell viability was analyzed (n=5, mean±SEM).
b: The PC 12 cells were treated together with a photocatalyst (1 μM) at 37° C. for 5 minutes in dark or under light irradiation (wavelength: 780 nm), and thereafter the cell viability was analyzed (n=3, mean±SEM).

T1 sequence (P05067 672-713): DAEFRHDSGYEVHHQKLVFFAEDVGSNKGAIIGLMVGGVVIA

## CN(C)c1ccc(/C=C/C2=C(Br)C(/C=C/c3ccc4c(c3)CCCN4CCCCCC(=O)O)=[O+][B-](F)(C(F)(F)F)O2)cc1 (centres unmarked) [Compound K]
[1]
  toxicity under light irradiation (ranking): higher in the order of the compound J, the compound K, and the compound L; also recorded: iodine provides more reduced toxicity than in the case of bromine
[2]
  Maximum wavelength λmax (nm): 620 nm
[3]
  benzoylmethionine/oxygenated form ratio (%): higher as the concentration of glycerol, which has high viscosity, was higher
[4]
  Degree of oxygenation (%) of Aβ42 (λ = 660 nm): 86%
[5]
  oxygenation of Aβ1-42 under light irradiation: oxygenation of the Aβ proceeded
[6]
  stability of catalyst (ranking): higher in the order of BFCF3 (compound K)<BFCF2CF3 (compound J)
[7]; PC 12 cells in dark, read-out: LC50 (dark)
  CC50: 1.89 µM
[7]; PC 12 cells, light irradiation 660 nm, read-out: LC50 (light)
  CC50: 0.143 µM
